Test results: the NIST ThermoML archive (doi:10.1021/je800188a)
± gives the expanded uncertainty stated by the source.

Test: mean ionic activity coefficient (dimensionless); mn = molality of the nth substance listed, in mol/kg
Conditions: 298.15 K, 101 kPa, Liquid

[Cl-].[K+] [potassium chloride] + O
Conditions	mean ionic activity coefficient
m1 = 0.2	0.719 ± 0.05
m1 = 0.4	0.669 ± 0.05
m1 = 0.6	0.641 ± 0.05
m1 = 0.8	0.623 ± 0.05
m1 = 1	0.61 ± 0.05
m1 = 1.2	0.601 ± 0.05
m1 = 1.4	0.593 ± 0.05
m1 = 1.6	0.588 ± 0.05
m1 = 1.8	0.584 ± 0.05
m1 = 2	0.58 ± 0.05
m1 = 2.2	0.578 ± 0.05
m1 = 2.4	0.576 ± 0.05
m1 = 2.6	0.575 ± 0.05
m1 = 2.8	0.575 ± 0.05
m1 = 3	0.575 ± 0.05
m1 = 3.2	0.576 ± 0.05
m1 = 3.4	0.576 ± 0.05
m1 = 3.6	0.578 ± 0.05
m1 = 3.8	0.58 ± 0.05
m1 = 4	0.582 ± 0.05
m1 = 4.2	0.584 ± 0.05
m1 = 4.4	0.587 ± 0.05
m1 = 4.6	0.59 ± 0.05
m1 = 4.8	0.593 ± 0.05
m1 = 4.803	0.593 ± 0.05

[Cl-].[Na+] [sodium chloride] + O
Conditions	mean ionic activity coefficient
m1 = 0.2	0.734 ± 0.05
m1 = 0.4	0.694 ± 0.05
m1 = 0.6	0.676 ± 0.05
m1 = 0.8	0.666 ± 0.05
m1 = 1	0.662 ± 0.05
m1 = 1.2	0.66 ± 0.05
m1 = 1.4	0.662 ± 0.05
m1 = 1.6	0.665 ± 0.05
m1 = 1.8	0.669 ± 0.05
m1 = 2	0.675 ± 0.05
m1 = 2.2	0.682 ± 0.05
m1 = 2.4	0.69 ± 0.05
m1 = 2.6	0.699 ± 0.05
m1 = 2.8	0.709 ± 0.05
m1 = 3	0.72 ± 0.05
m1 = 3.2	0.732 ± 0.05
m1 = 3.4	0.744 ± 0.05
m1 = 3.6	0.758 ± 0.05
m1 = 3.8	0.772 ± 0.05
m1 = 4	0.787 ± 0.05
m1 = 4.2	0.803 ± 0.05
m1 = 4.4	0.82 ± 0.05
m1 = 4.6	0.838 ± 0.05
m1 = 4.8	0.857 ± 0.05
m1 = 5	0.877 ± 0.05
m1 = 5.2	0.898 ± 0.05
m1 = 5.4	0.92 ± 0.05
m1 = 5.6	0.943 ± 0.05
m1 = 5.8	0.968 ± 0.05
m1 = 6	0.993 ± 0.05
m1 = 6.144	1.01 ± 0.051
